Reference: patent US11851413B1, “1,3-benzothiazol-2-yl-N'-[(naphthalene-1-carbonyl)oxy]ethanimidamide as an antitumor and antimicrobial compound” (KING FAISAL UNIVERSITY, priority 2023, dated 2023)

Legend:
[1] = system: human osteosarcoma cells (MG-63); experiment: Cytotoxicity by SRB assay, MG-63 cells; type: cell-based; conditions: 0.01 μM to 100 μM, 72 h
Protocol: (§1) The human prostate cancer cells (PC3) and human osteosarcoma cells (MG-63) were obtained from Nawah Scientific Inc. (Mokatam, Cairo, Egypt) and cultured in DMEM (Dulbecco's modified eagle's medium), Gibco, USA, supplemented with fetal bovine serum (FBS) at a concentration of 10% and 100 U/mL of penicillin and streptomycin (PS). The Cells were incubated at 37° C. in a humidified environment that contained 5% CO2. Cells were seeded in 96-well plates as aliquots of 100 μL cell suspension and incubated in a complete media for 24 h. afterward, cells were treated with N′-(1-naphthoyloxy)-2-(benzo[d]thiazol-2-yl)acetimidamide at diverse concentrations ranging from 0.01 μM to 100 μM for 72 h. Then, cells were fixed at 4° C. for one hour with 150 μL of 10% trichloroacetic acid (TCA). After washing the cells five times with distilled water, 70 μL of sulforhodamine (SRB) solution (0.4% w/v) was added and incubated for 10 min at room temperature in a dark place. […] Then, 150 μL of Tris pH 10.5 (10 mM) was added, and the absorbance was measured at 540 nm using a BMG LABTECH®-FLUOstar Omega microplate reader (Ortenberg, Germany). Half maximal inhibitory concentrations (IC50) values were calculated for each experiment using GraphPad Prism 6 software. […] The inhibition was calculated using the following equation: Inhibition%=100−Average Viability

[2] = system: human prostate cancer cells (PC3); experiment: Cytotoxicity by SRB assay, PC3 cells; type: cell-based; conditions: 0.01 μM to 100 μM, 72 h
Protocol: as §1

- melting point: 191 to 193 °C
SMILES: N/C(Cc1nc2ccccc2s1)=N\OC(=O)c1cccc2ccccc12 [1,3-benzothiazol-2-yl-N′-[(naphthalene-1-carbonyl)oxy]ethanimidamide]
- antiproliferative activity against osteosarcoma (MG-63) cells [1]: excellent antiproliferative activities
- antiproliferative activity against prostate cancer cells (PC3) [2]: excellent antiproliferative activities
